# Results reported in US3971814A, “Benzo(b)thiophene derivatives” (priority 1972, dated 1976).
# Tests used:
# in vivo [1] = details: rat, po
# Protocol: experimental animals are male mice (NMRI) weighing 16 to 24 g and male rats (SIV 50) weighing 120 to 180 g.
# Prior to the beginning of the test, all animals are kept fasting for 16 to 18 hours, however water is offered ad libitum. 6 mice and 4 or 6 rats belonged to each dosage group and the doses between each group are increased logarithmically. The volume of liquid administered during testing amounted to 2 ml/100 g body weight. The substances tested are suspended in 1 percent Tragacanth mucilage and administered intragastrically via a gastric tube.
# [2] = test system: Yeast Edema of the Rat Paw; assay: Yeast edema and determination of pain threshold in the rat paw; format: in vivo; details: 3 h; for Pain Threshold (change vs initial value) / Volume (increase in paw volume, blank control = 100%): i.g.
# Protocol: test animals are male rats (SIV 50) weighing 100 to 180 g. […] 10 animals belonged to each dosage group.
# The volume of the paw is determined according to the method described by Enders and Heidbrink, the pain threshold according to that described by Randall and Selitto (Arch. Int. Pharmacodyn CXI: 409, 1957).
# Following initial measurements, […] of a 5% suspension of dried yeast is injected subplantarly into the right paw and the test substances are administered immediately. The blank control group is given Tragacanth mucilage only. After 3 hours the pain threshold and the volume of the paw are determined again.
# The mean value of the increase in paw volume of the animals of the blank control after 3 hours is rated 100%, and the mean value of the increase in paw volume of the animals of the substance groups expressed as a percentage thereof. Pain threshold after 3 hours reflects the increase or decrease in percent, compared to the initial value.
# In order to be able to calculate the ED50 according to the method by Lichtfield and Wilcoxon (J.P.E.T. 96:99, 1949), those animals in a dose group are considered protected when the paw swelling was at least 40% less than that of the blank control.
# [3] = test system: Carrageenin Edema of the Rat Paw; assay: Carrageenin edema of the rat paw; format: in vivo
# Protocol: test animals used are the same as stated under Example B and up to the initial measurement, the procedure corresponded to that described under this example.
# After an initial measurement, the test substances are administered and after 60 minutes a 1% Carrageenin suspension is injected subplantarly (0.1 ml/paw). After 60 and 180 minutes the paw volume is again determined. Here, too, the blank control group was treated with the carrier alone.
# The increase in the volume of the paw after 60 minutes is considered as the first phase of the biphase edema and that after 180 minutes, as compared to the 60-minute-value, as the second phase. Moreover, the total increase of the paw edema within 180 minutes, as compared to the initial value, is also determined.
# Determination of the influence exerted by the substances upon the development of the paw edema and calculation of the ED50 are done as under Example B.
# [4] = test system: Kaolin Edema of the Rat Paw; assay: Kaolin edema of the rat paw; format: in vivo; details: 2.5 mg/kg
# Protocol: test animals used are the same as stated under Example B and up to the beginning of the test, the procedure corresponded to that described under this example.
# After an initial measurement, a sterile 25% kaolin suspension was injected (0.05 ml/paw) subplantarly. The test substances are administered immediately, and after 60, 120, and 180 minutes the paw volume is again determined.
# Evaluation of the tests was performed as stated under Example C, and the results so obtained presented below: […]
# Granulation Tissue = assay: Cotton-pellet test (granulation tissue); format: in vivo; details: rat; for granulation tissue % dry weight: ig., 2×1,5 mg/kg daily, section K
# Protocol: test animals are male rats (SIV 50) weighing 110 to 200 g. All test animals are kept fasting for 16 to 18 hours prior to the implantation of the pellets; after that food and water were available ad libitum. Each dose level of the chemical tested was administered to 12 animals. The substances were suspended in 1% Tragacanth mucilage and administered intragastrically by means of a stomach tube. The substances to be investigated and the control suspensions are administered once on the operating day following operation, and twice a day on the following 6 days (at intervals of 6 to 8 hours). The type of application and volume of liquid corresponded to that under B.
# Under light ether anesthesia 4 sterile cotton pellets were implanted under the skin on the back of the animal. The weight of one pellet was 50 mg ± 0.5 mg. After 7 days treatment, the animals were sacrificed, the pellets removed with the granulation tissue, weighed and then dried in the incubator at +80°C to constant weight. The average dry weight of the granulation tissue of the control group was rated 100%, and deviations of the mean weights of the group treated with the test substance determined as a percentage thereof.
# The weight of the animals is measured daily throughout the tests, and the percental increase determined. At the end of some tests, moreover, the suprarenal glands are removed and their weight determined.
# Granuloma Pouch = assay: Granuloma pouch test; format: in vivo; details: rat, i.g., 2 × 1.5 mg/kg daily
# Protocol: Under light ether anesthesia 25 ml of air are injected under the shaved skin of the back. 0.5 ml of croton oil/animal (0.05%) are injected into the pouch formed by the air, and evenly distributed over the back by turning the animal.
# On the third day croton oil (3%, 0.5 ml/animal) is again injected into this pouch.
# The average dry weights of the granuloma pouches and the quantities of secretion of the groups subjected to treatment are then compared with those of the control group and the percental deviations calculated.
# At the end of some tests the suprarenal glands are removed and the weight of these organs is also determined.
# The weight of the animals is measured daily and the changes determined as a percentage.
# [5] = test system: Arthritis Induced by the Freund Adjuvant; assay: Adjuvant arthritis; format: in vivo; details: rat, i.g., 2 × 2.5 mg/kg
# Protocol: test animals used are the same as described under Example E; food and water is given ad libitum.
# On the first day of the test a 0.8% suspension of Mycobacterium butyrium in paraffin (0.05 or 0.1 ml/paw) is injected subplantarly into the left hind paw of the animals. […] From the 19th to the 22nd day the animals showing a reaction are treated intragastrically with the test substances. The right paw having been marked above the ankle-joint, the volume is determined daily from the 19th to the 22nd or 23rd day, according to the process described under Example B.
# The volume of liquid, as well as of the carrier administered, corresponded to that described in the above tests.
# male mice (NMRI) = assay: Hot-plate test (analgesia); format: in vivo; details: mouse, i.g.
# Protocol: male mice (NMRI) weighing 18 to 28 g are used as test animals. The animals are placed on a copper plate constantly kept at 55°C, and the time is measured until they lick their forepaws.
# Following 3 initial measurements, the test substances are administered intragastrically. Afterwards the measurements are repeated over a period of 2 hours at intervals of 30 minutes. Each dose is administered to 10 animals selected from groups of 15 animals following the initial measurements.
# The test substances are administered as a suspension in 1% Tragacanth mucilage, the volume of liquid amounting to 2 ml/100 g of body weight.
# For the purpose of statistical evaluation according to Litchfield and Wilcoxon, those animals in which the reaction time has been extended by at least 100% are considered protected.
# [6] = Summary: calculated ED50 and therapeutic ratio; format: in vivo, rat
# Protocol: From the ED50 and LD50 (A) the following therapeutic ratios for this test are calculated: […]
# in vivo [7] = details: mouse, po
compound,measurement,setting,value
"COc1ccc2c(c1)c(CC(=O)O)c(C)n2C(=O)c1ccc(Cl)cc1 [Indomethacin, 1-(p-Chlorobenzoyl)-5-methoxy-2-methylindole-3-acetic acid]",LD50,in vivo [1],20 to 30 mg/kg
same,Pain Threshold (change vs initial value),[2]; 5.0 mg/kg,-22%
same,"Volume (increase in paw volume, blank control = 100%)",[2]; 5.0 mg/kg,131%
same,Pain Threshold (change vs initial value),[2]; 20.0 mg/kg,+11%
same,"Volume (increase in paw volume, blank control = 100%)",[2]; 20.0 mg/kg,108%
same,change in vivo at 5 mg/kg,"[2]; po, ig., 5 mg/kg, section K",-22%
same,response vs control in vivo at 5 mg/kg,"[2]; po, ig., 5 mg/kg, section K, read-out: volume (paw, control = 100%)",100%
same,1st Phase (paw edema),[3]; 1.0 mg/kg,65%
same,2nd Phase (paw edema),[3]; 1.0 mg/kg,80%
same,3 Hrs. (total paw edema),[3]; 1.0 mg/kg,73%
same,1st Phase (paw edema),[3]; 5.0 mg/kg,80%
same,2nd Phase (paw edema),[3]; 5.0 mg/kg,73%
same,3 Hrs. (total paw edema),[3]; 5.0 mg/kg,73%
same,60 Minutes (paw edema),[4],79%
same,120 Minutes (paw edema),[4],81%
same,180 Minutes (paw edema),[4],81%
same,Granulation Tissue % (Dry Weight),"Granulation Tissue; i.g., 2 × 1.5 mg/kg daily",80%
same,Increase in Body Weight,"Granulation Tissue; i.g., 2 × 1.5 mg/kg daily",not influenced
same,granulation tissue % dry weight,Granulation Tissue; NaCl control group,91%
same,granulation tissue % dry weight,Granulation Tissue; tragacanth control group,65%
same,Exitus (footnote),Granuloma Pouch,Exitus of an animal
same,Granuloma Pouch Dry Weight,Granuloma Pouch,98%
same,Increase in Body Weight,Granuloma Pouch,not influenced
same,Secretion,Granuloma Pouch,134%
same,Swelling,[5],80%
same,Notes (analgesic activity),male mice (NMRI),slightly effective
same,protection,male mice (NMRI); starting with 20 mg/kg,approx. 50%
same,ED50,[6]; Rattus norvegicus,0.9 mg/kg
same,therapeutic ratio,[6]; from ED50 and LD50 (A),33.3
same,LD50,in vivo [7],< 10 mg/kg
